In ChEMBL document CHEMBL4190382, “Targeting lysine specific demethylase 4A (KDM4A) tandem TUDOR domain - A fragment based approach” (Bioorg Med Chem Lett, 2018):
Residue numbers refer to the chain shown, from its start. Active and inactive are the calls of the source. The calls are words filed in the database; no cut-off is given here.

Assays:
[1] = system: T1, Lysine-specific demethylase 4A (Homo sapiens), O75164 [F932A]; experiment: Binding affinity to thrombin cleavable N-terminal 6His tagged and 13C-IVLM labeled human KDM4A tandem TUDOR domain (897 to 1011 residues) F932A mutant expressed in Escherichia coli BL21(DE3)-T1R by ITC method
T1 sequence (whole entry): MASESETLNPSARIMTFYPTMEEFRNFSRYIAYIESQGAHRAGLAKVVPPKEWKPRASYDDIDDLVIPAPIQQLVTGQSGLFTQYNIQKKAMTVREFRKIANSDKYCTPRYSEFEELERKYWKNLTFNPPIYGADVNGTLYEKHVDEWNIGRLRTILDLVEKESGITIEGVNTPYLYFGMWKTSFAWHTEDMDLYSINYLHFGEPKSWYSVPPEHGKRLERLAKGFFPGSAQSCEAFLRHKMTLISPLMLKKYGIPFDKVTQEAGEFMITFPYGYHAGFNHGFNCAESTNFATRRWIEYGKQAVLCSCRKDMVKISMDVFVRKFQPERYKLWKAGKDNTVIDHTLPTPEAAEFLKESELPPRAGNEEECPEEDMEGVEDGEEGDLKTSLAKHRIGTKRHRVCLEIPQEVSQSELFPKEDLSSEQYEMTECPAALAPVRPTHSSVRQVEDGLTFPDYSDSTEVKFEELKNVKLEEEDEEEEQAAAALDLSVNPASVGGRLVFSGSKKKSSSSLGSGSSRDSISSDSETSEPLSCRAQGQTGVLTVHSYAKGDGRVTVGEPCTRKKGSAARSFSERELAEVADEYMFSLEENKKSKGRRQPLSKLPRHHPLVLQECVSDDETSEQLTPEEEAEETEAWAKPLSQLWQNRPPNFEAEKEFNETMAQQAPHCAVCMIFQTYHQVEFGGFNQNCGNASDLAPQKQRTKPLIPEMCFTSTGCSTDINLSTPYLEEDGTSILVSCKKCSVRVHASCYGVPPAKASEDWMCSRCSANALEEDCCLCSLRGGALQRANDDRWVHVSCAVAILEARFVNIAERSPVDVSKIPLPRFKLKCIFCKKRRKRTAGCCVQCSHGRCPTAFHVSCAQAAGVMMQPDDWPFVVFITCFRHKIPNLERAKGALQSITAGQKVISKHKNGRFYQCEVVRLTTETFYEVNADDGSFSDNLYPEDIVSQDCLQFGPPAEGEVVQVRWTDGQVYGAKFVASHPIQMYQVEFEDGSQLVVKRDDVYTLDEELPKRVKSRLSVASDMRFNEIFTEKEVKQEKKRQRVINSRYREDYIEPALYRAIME

[2] = biological target: T2, Lysine-specific demethylase 4A (Homo sapiens, UniProt O75164); experiment: Binding affinity to thrombin cleavable N-terminal 6His tagged and 13C-IVLM labeled human KDM4A tandem TUDOR domain (897 to 1011 residues) expressed in Escherichia coli BL21(DE3)-T1R by ITC method
T2 sequence (O75164 whole entry): T1 sequence (whole entry) with A932F

SMILES: CN(C)C[C@H]1C2CCC(c3ccccc3)(C2)[C@H]1O (some centres not stated)
- Activity [1]: inactive
- Kd [2]: 81.7 µM
